In publication PMC3171579 (ACS combinatorial science, 2011) one finds IC50 data, which are given here for two molecules.

In one assay the test system is cyclophilin A (CypA). The conditions noted are these: cell free assay; cited from earlier work.
The next assay deals with FK506-binding protein 12 (human, UniProt P62942 1-108). The experiment in a line: fluorescence polarisation. Background: In fluorescence polarisation assays a small probe gives low polarisation when free and higher when bound to something large.

Non-standard residues stand in square brackets, D forms with d. *: point of attachment. Dkb = 3,3-dimethyl-2-ketobutyryl, CC(C)(C)C(=O)C(=O)*; Pip = O=C(O)[C@@H]1CCCCN1

Broadly, the IC50 is the concentration that gives 50% inhibition.

Chain of FK506-binding protein 12 (P62942 whole entry): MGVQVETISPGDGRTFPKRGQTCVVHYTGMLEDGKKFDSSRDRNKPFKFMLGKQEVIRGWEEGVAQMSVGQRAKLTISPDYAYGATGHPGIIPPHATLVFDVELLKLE

With `CC[C@H]1C[C@H](C)[C@@]2(NC1=O)O[C@@H](C[C@H](O)[C@@H](C)CC/C=C/C=C(\C)[C@@H]1C/C=C/C=C/[C@H](O)[C@H](C)[C@@H](O)[C@@H](CCC(C)=O)C(=O)N[C@@H](C(C)C)C(=O)N[C@@H](Cc3cccc(O)c3)C(=O)N3CCC[C@H](N3)C(=O)O1)[C@H](C)[C@H](O)[C@@H]2C` [Sanglifehrin A], the IC50 in the assay with cyclophilin A (CypA) was around 0.007 µM.

cyclo(AA[dA][Dkb][Pip][dI]Q) (also: Dkb 4 joined by ester to 3) [rapalog 2i]: in the assay with FK506-binding protein 12, the IC50 was found to be 266 µM.
